# Experimental data reported in patent US20250085273A1, “NOVEL RAPID DRUG DISCOVERY FOR SEPSIS AND AGENTS FOR USE AS SEPSIS THERAPY” (priority 2023, published 2025).
# Legend:
# α1B = biological target: T1, α1B (Homo sapiens, UniProt P35368); details: read-out: affinity (Ki) α1B; cited from earlier work
# T1 sequence (P35368 1-520): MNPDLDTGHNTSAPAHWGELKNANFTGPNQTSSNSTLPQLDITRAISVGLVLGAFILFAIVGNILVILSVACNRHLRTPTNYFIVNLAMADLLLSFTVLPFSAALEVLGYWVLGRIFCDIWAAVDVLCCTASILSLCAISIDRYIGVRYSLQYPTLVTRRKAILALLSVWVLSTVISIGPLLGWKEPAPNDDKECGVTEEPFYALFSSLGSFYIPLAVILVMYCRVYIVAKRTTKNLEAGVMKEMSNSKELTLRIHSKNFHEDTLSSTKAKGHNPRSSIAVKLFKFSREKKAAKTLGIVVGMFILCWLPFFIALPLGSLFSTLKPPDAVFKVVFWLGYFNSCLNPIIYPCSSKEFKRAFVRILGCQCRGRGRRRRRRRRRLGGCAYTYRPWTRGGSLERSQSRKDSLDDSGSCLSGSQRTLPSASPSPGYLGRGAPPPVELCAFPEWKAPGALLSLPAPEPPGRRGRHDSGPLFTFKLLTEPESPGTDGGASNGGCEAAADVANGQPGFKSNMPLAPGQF
# 5-HT2B = 5-HT2B (Homo sapiens, UniProt P41595); details: read-out: affinity (Ki) 5-HT2B; cited from earlier work
# [1] = tested on: zebrafish (4 dpf pre-treated, LPS exposure at 5-dpf) challenged with P. aeruginosa LPS 60 μg/mL; type: in vivo, Danio rerio
# Outline: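 PTU-treated 4 dpf zebrafish embryos received a 24-hour drug pre-treatment at 28.5 °C, alongside an untreated parallel group, before challenge at 5 dpf with P. aeruginosa LPS at 60 μg/mL. Tail edema and mortality were scored at 6 and 24 h post exposure, followed by a neurobehavioral test.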
# [2] = tested on: 3-dpf Zebrafish Embryos Challenged with LPS (P. aeruginosa 60 μg/mL); type: in vivo, Danio rerio; details: P. aeruginosa LPS 60 μg/mL, compound 10 μM
# Outline: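 3-dpf PTU-treated AB zebrafish embryos exposed to 60 μg/mL P. aeruginosa LPS plus 10 μM compound (final) at 28.5 °C, n=16 per compound. Tail edema and mortality scored at 6 and 24 h post exposure; rescue judged against LPS-only controls at 24 h.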
# α2C = biological target: T2, α2C (Homo sapiens, UniProt P18825); details: read-out: affinity (Ki) α2C; cited from earlier work
# T2 sequence (P18825 1-462): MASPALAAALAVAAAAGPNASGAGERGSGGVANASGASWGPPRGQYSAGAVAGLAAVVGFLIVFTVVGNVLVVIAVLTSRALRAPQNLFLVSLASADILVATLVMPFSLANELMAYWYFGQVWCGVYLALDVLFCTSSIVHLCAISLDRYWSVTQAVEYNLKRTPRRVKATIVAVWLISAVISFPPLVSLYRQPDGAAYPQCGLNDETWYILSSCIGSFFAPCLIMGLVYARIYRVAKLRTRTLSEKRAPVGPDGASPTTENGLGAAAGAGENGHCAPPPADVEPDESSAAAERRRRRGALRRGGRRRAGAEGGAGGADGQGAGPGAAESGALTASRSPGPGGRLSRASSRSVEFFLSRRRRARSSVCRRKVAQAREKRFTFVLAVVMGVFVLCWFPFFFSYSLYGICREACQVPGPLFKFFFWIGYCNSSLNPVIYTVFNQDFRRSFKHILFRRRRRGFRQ
# [3] = number of n = 16 fish, 24-hour 10 μM drug pre-treatment
# [4] = number of n = 16 fish, no 24-hour pre-treatment
# Chain of 5-HT2B (P41595 whole entry, species assumed): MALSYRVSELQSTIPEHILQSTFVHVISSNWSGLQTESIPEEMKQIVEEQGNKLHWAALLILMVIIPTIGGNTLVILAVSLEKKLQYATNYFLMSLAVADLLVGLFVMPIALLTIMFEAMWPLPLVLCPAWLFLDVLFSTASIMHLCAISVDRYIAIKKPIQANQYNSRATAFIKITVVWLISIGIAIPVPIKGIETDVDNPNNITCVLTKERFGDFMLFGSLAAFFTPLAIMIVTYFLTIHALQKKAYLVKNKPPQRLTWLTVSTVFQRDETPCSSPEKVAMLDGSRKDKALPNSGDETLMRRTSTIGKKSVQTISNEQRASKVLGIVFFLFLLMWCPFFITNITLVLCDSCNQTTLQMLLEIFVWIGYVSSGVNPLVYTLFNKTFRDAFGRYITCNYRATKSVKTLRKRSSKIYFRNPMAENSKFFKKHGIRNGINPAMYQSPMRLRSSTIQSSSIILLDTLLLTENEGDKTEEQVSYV
compound,measurement,setting,value
"O=c1ccc2ccc(OCCCCN3CCN(c4cccc5sccc45)CC3)cc2[nH]1 [Compound 45, Brexpiprazole]",Ki,α1B,0.17 nM
same,Ki,5-HT2B,1.9 nM
same,Pre-Treatment Rescue (n = 16),"[1]; 24-hour drug pre-treatment, P. aeruginosa LPS 60 μg/mL",94%
same,No Pre-Treatment Rescue (n = 16),"[1]; no 24-hour drug pre-treatment, P. aeruginosa LPS 60 μg/mL",94%
same,"24 hour Tail Edema, No-Drug Pretreatment","[1]; number of n = 16 fish, 10 μM drug with LPS 60 μg/mL, no 24-hour pre-treatment",1 fish
same,"24 Hour Mortality and Tail Edema, Drug Pretreatment",[1]; [3],1 fish
same,"24 Hour Mortality, Drug Pretreatment",[1]; [3],1 fish
same,"24 hour Tail Edema, Drug Pretreatment","[1]; number of n = 16 fish, 24-hour 10 μM drug pre-treatment before LPS 60 μg/mL",0 fish
same,"24 Hour Mortality and Tail Edema, No-Drug Pretreatment",[1]; [4],1 fish
same,"24 Hour Mortality, No Drug Pretreatment",[1]; [4],0 fish
same,Percent Rescue (Mort + Tail Edema),"[2]; 3-dpf embryos, 24 hours, n=16",100%
same,rescue of tail edema and mortality (sepsis rescue rate) at 3-dpf,"[2]; 3-dpf, 24 hours",100%
same,3 dpf Embryos Percent Rescue (Mort + Tail Edema),[2]; initial 3-dpf screen shown for reference,100%
same,Ki,α2C,0.59 nM
